Consider one compound from PubChem BioAssay AID588620 (NMMLSC, 2011).

This experiment concerns S. cerevisiae AD/pABC3 compound autofluorescence, flow cytometry. The experiment is described as follows: concentration-dependent intrinsic compound fluorescence, S. cerevisiae AD/pABC3, flow cytometry, Cherry Pick1 hits, artefact control for antifungal efflux pump inhibitor project, dose response (AID 588620).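 Further: red emission of unstained cells excited at 488 nm measured in PE-Texas Red channel.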

Structures are written as SMILES.

On to `COc1cc2sc(-c3ccccc3OC)c(-c3ccc(OCCN4CCOCC4)cc3)c2cc1OC`, for which the EC50 was 17.2 µM.
